Measurements taken from patent publication US11458114B2, “Methods and compositions for enhancing synthesis secretion and transport of collagen to increase wound strength” (NORTH CELL PHARMACEUTICALS, INC., priority 2020, dated 2022).
“Also recorded” adds a separate entry of the source. Where two headings read alike, the source gives them in different places.

What was measured:
non-cancerous cells = assay: Viable non-cancerous cells after incubation with anticancer drugs in various media; assay type: cell-based; design: Percentage of viable cells, Drugs in commercial formula with SRF: concentration or dose not given beside the values
wounds = assay: Various drugs administered on wounds with or without sodium pyruvate or SRF: erythema rating and days to total re-epithelization; conditions: for Drug in commercial formula with SRF. Days to healing / Drug in commercial formula with sodium pyruvate only. Days to healing / Drug in commercial formula Days to healing: days to total re-epithelization
Method: (§1) All previous studies using pyruvate to treat wounds or be used as an antioxidant used only the sodium salt form of pyruvic acid. The drug products that were tested in previous studies used 1-3% sodium pyruvate and other sodium salts of alpha keto acids by weight 1-3% concentrations in the lotions and triple antibiotic formulations. […]

[1] = system: skin laser wounds in patients; assay: Salts of pyruvate and SRF on skin laser wounds in patients: healing and irritation; conditions: for irritation or toxicity: human, in vivo; for wound healing results: same concentration of pyruvate for each salt, compared with sodium pyruvate formulations or base
Method: as §1

[2] = Rating 1-10, 1 most erythema, 10 no erythema
[3] = Rating 1-10, 1 most erythema, 10 no erythema, drug alone

| Compound | Drugs in commercial formula with SRF erythema (wounds; [2]) | Drugs in commercial formula with sodium pyruvate only erythema (wounds; [2]) | Drugs in commercial formula erythema (wounds; [3]) | Drug in commercial formula with SRF. Days to healing (wounds) | Drug in commercial formula with sodium pyruvate only. Days to healing (wounds) | Drug in commercial formula Days to healing (wounds; drug alone) | other results |
| --- | --- | --- | --- | --- | --- | --- | --- |
| N.N.O=C([O-])C1(C(=O)[O-])CCC1.[Pt+2] [Carboplatin] | – | – | – | – | – | – | Percentage of viable cells, Drugs in commercial formula (non-cancerous cells): 50%; Percentage of viable cells, Drugs in commercial formula sodium pyruvate without SRF (non-cancerous cells): 56%; Percentage of viable cells, Drugs in commercial formula with SRF (non-cancerous cells): 87%; Percentage of viable cells after incubation with drugs (non-cancerous cells; drug): 42%; Percentage of viable cells, Drugs in commercial formula with SRF repeat study (non-cancerous cells; repeat study): 97% |
| Clc1ccccc1C(c1ccccc1)(c1ccccc1)n1ccnc1 [Chlotrimizole] | – | – | – | 11 days | 15 days | 22 days | Drugs in commercial formula erythema (wounds; in vivo): 4; Drugs in commercial formula with SRF erythema (wounds; in vivo): 8; Drugs in commercial formula with sodium pyruvate only erythema (wounds; in vivo): 6 |
| CC(=O)OCC(CCn1cnc2cnc(N)nc21)COC(C)=O [Famciclovir] | 7 | 6 | 5 | 12 days | 14 days | 17 days | – |
| Nc1nc2c(ncn2CCC(CO)CO)c(=O)[nH]1 [Penciclovir] | 8 | 7 | 7 | 12 days | 16 days | 17 days | – |
| CC(=O)C(=O)O.N [ammonium pyruvate] | – | – | – | – | – | – | irritation or toxicity [1]: irritating and possibly toxic; wound healing results [1]: slight increases in healing; also recorded: did not produce increases in healing over the base |
| CC(C)(C#N)c1cc(Cn2cncn2)cc(C(C)(C)C#N)c1 [anastrozole] | – | – | – | – | – | – | Percentage of viable cells after incubation with drugs (non-cancerous cells): 24%; Percentage of viable cells, Drugs in commercial formula (non-cancerous cells): 25%; Percentage of viable cells, Drugs in commercial formula sodium pyruvate without SRF (non-cancerous cells): 50%; Percentage of viable cells, Drugs in commercial formula with SRF (non-cancerous cells): 86%; Percentage of viable cells, Drugs in commercial formula with SRF repeat study (non-cancerous cells): 94% |
| O=c1[nH]c(=O)n([C@H]2C[C@H](O)[C@@H](CO)O2)cc1F [floxuridine] | – | – | – | – | – | – | Percentage of viable cells after incubation with drugs (non-cancerous cells): 38%; Percentage of viable cells, Drugs in commercial formula (non-cancerous cells): 38%; Percentage of viable cells, Drugs in commercial formula sodium pyruvate without SRF (non-cancerous cells): 58%; Percentage of viable cells, Drugs in commercial formula with SRF (non-cancerous cells): 92%; Percentage of viable cells, Drugs in commercial formula with SRF repeat study (non-cancerous cells): 91% |
| CC(=O)C(=O)[O-].[Li+] [lithium pyruvate] | – | – | – | – | – | – | irritation or toxicity [1]: irritating and possibly toxic; wound healing results [1]: slight increases in healing; also recorded: did not produce increases in healing over the base |
| CN(Cc1cnc2nc(N)nc(N)c2n1)c1ccc(C(=O)N[C@@H](CCC(=O)O)C(=O)O)cc1 [methotrexate] | – | – | – | – | – | – | Percentage of viable cells, Drugs in commercial formula (non-cancerous cells): 43%; Percentage of viable cells, Drugs in commercial formula sodium pyruvate without SRF (non-cancerous cells): 68%; Percentage of viable cells, Drugs in commercial formula with SRF (non-cancerous cells): 94%; Percentage of viable cells after incubation with drugs (non-cancerous cells; drug): 42%; Percentage of viable cells, Drugs in commercial formula with SRF repeat study (non-cancerous cells; repeat study): 98% |
| C[C@@H]1[C@H](O)[C@@H](C)/C=C/C=C/CC/C=C/C=C/C=C/C=C/C(O[C@H]2O[C@H](C)[C@@H](O)[C@H](N)[C@@H]2O)CC2O[C@](O)(CC(O)C(O)CCC(O)CC(O)CC(O)CC(=O)O[C@H]1C)CC(O)C2C(=O)O (stereo partly drawn) [nystatin] | 8 | 6 | 2 | 12 days | 14 days | 17 days | – |
| O=C1[O][Pt]2([NH][C@@H]3CCCC[C@H]3[NH]2)[O]C1=O [oxaliplatin] | – | – | – | – | – | – | Percentage of viable cells, Drugs in commercial formula (non-cancerous cells): 24%; Percentage of viable cells, Drugs in commercial formula sodium pyruvate without SRF (non-cancerous cells): 41%; Percentage of viable cells, Drugs in commercial formula with SRF (non-cancerous cells): 95%; Percentage of viable cells after incubation with drugs (non-cancerous cells; drug): 23%; Percentage of viable cells, Drugs in commercial formula with SRF repeat study (non-cancerous cells; repeat study): 98% |
| CC(=O)C(=O)[O-].[Na+] [sodium salt of pyruvic acid, sodium pyruvate] | – | – | – | – | – | – | irritation or toxicity [1]: no irritation; wound healing results [1]: enhanced healing |
| Bevacizumab | – | – | – | – | – | – | Percentage of viable cells after incubation with drugs (non-cancerous cells): 21%; Percentage of viable cells, Drugs in commercial formula (non-cancerous cells): 27%; Percentage of viable cells, Drugs in commercial formula sodium pyruvate without SRF (non-cancerous cells): 40%; Percentage of viable cells, Drugs in commercial formula with SRF repeat study (non-cancerous cells): 87% |
| Bleomycin | – | – | – | – | – | – | Percentage of viable cells, Drugs in commercial formula (non-cancerous cells): 33%; Percentage of viable cells, Drugs in commercial formula sodium pyruvate without SRF (non-cancerous cells): 47%; Percentage of viable cells, Drugs in commercial formula with SRF (non-cancerous cells): 98%; Percentage of viable cells after incubation with drugs (non-cancerous cells; drug): 31%; Percentage of viable cells, Drugs in commercial formula with SRF repeat study (non-cancerous cells; repeat study): 98% |
| aluminum pyruvate | – | – | – | – | – | – | wound healing results [1]: slight increases in healing; also recorded: did not produce increases in healing over the base |
| manganese pyruvate | – | – | – | – | – | – | wound healing results [1]: slight increases in healing; also recorded: did not produce increases in healing over the base |
| microazole | – | – | – | 11 days | 12 days | 19 days | Drugs in commercial formula erythema (wounds; in vivo): 5; Drugs in commercial formula with SRF erythema (wounds; in vivo): 7; Drugs in commercial formula with sodium pyruvate only erythema (wounds; in vivo): 6 |

Further lines, with some results ahead:

| Drugs in commercial formula with SRF erythema (wounds; [2]) | Drugs in commercial formula with sodium pyruvate only erythema (wounds; [2]) | Drugs in commercial formula erythema (wounds; [3]) | Compound | Drug in commercial formula with SRF. Days to healing (wounds) | Drug in commercial formula with sodium pyruvate only. Days to healing (wounds) | Drug in commercial formula Days to healing (wounds; drug alone) | other results |
| --- | --- | --- | --- | --- | --- | --- | --- |
| 7 | 3 | 1 | CC1=C(/C=C/C(C)=C/C=C/C(C)=C/CO)C(C)(C)CCC1 [Retinol] | 9 days | 15 days | 19 days | – |
| 5 | 4 | 3 | CN(Cc1ccc(C(C)(C)C)cc1)Cc1cccc2ccccc12 [butenafine] | 16 days | 18 days | 21 days | – |
| 9 | 5 | 4 | Cc1cc(C2CCCCC2)n(O)c(=O)c1 [ciclopirox] | 9 days | 11 days | 20 days | – |
| 6 | 6 | 6 | Clc1ccc(COC(Cn2ccnc2)c2ccc(Cl)cc2Cl)cc1 (stereo not drawn) [econazole] | 14 days | 17 days | 19 days | – |
| 8 | 5 | 6 | CC[C@H]1OC(=O)[C@H](C)[C@@H](O[C@H]2C[C@@](C)(OC)[C@@H](O)[C@H](C)O2)[C@H](C)[C@@H](O[C@@H]2O[C@H](C)C[C@H](N(C)C)[C@H]2O)[C@](C)(O)C[C@@H](C)C(=O)[C@H](C)[C@@H](O)[C@]1(C)O [erythromycin] | 9 days | 13 days | 19 days | – |
| 8 | 6 | 3 | CC(=O)N1CCN(c2ccc(OCC3COC(Cn4ccnc4)(c4ccc(Cl)cc4Cl)O3)cc2)CC1 (stereo not drawn) [ketoconazole] | 14 days | 20 days | 23 days | – |
| 7 | 8 | 8 | NCc1ccc(S(N)(=O)=O)cc1 [mafenide] | 12 days | 14 days | 18 days | – |
| 7 | 6 | 3 | CN(C/C=C/c1ccccc1)Cc1cccc2ccccc12 [naftifine] | 13 days | 14 days | 20 days | – |
| 9 | 7 | 6 | Clc1ccc(CO/N=C(\Cn2ccnc2)c2ccc(Cl)cc2Cl)c(Cl)c1 [oxiconazole] | 11 days | 14 days | 18 days | – |
| 8 | 6 | 4 | Clc1ccc(CSC(Cn2ccnc2)c2ccc(Cl)cc2Cl)cc1 (stereo not drawn) [sulconazole] | 11 days | 15 days | 20 days | – |
| 7 | 7 | 7 | Cc1cccc(N(C)C(=S)Oc2ccc3ccccc3c2)c1 [tolnaftate] | 10 days | 13 days | 21 days | – |
| 8 | 8 | 8 | CC(C)[C@H](N)C(=O)OCCOCn1cnc2c(=O)[nH]c(N)nc21 [valaciclovir] | 14 days | 17 days | 18 days | – |
